In patent US8383125B2, “Antimicrobial protein” (Agriculture Victoria Services Pty, Limited, priority 2006, dated 2013):
Converted amounts (≈) assume the structure as drawn. Read-outs that look alike come from different tables or passages of the source. Where a SMILES comes first, the peptide text is derived from it. Where no end group is shown, it is not given here. [ ]: non-standard residue; d: D form.

Experiments:
[1] = tested on: K. pneumoniae strain FADDI 009; type: cell-based, Klebsiella pneumoniae; conditions: strain FADDI 009, 17 h
Description: (§1) The MIC values of SEQ ID NO: 2 and SEQ ID NO: 19 were also determined against a range of multidrug-resistant isolates, including clinical and laboratory strains. Peptides, maintained at −20° C. in solid form for storage purposes, were subsequently dissolved in 0.01% (v/v) acetic acid (Sigma-Aldrich) to a stock concentration of […]. The stock solutions were made fresh for each experiment. Eighteen (18) bacterial isolates obtained from the Facility for Anti-Infective Drug Development and Innovation, Victoria, Australia (FADDI) as listed in Table 2 were maintained as stock cultures in Tryptic Soya Broth plus 20% (v/v) glycerol at a temperature of −80° C., and subcultured onto Nutrient Agar for each experiment. MIC values were determined in cation-adjusted Mueller-Hinton broth (CAMHB) and Mueller-Hinton broth (MHB) using standard broth micro-dilution methods.

[2] = tested on: K. pneumoniae strain FADDI 010; type: cell-based, Klebsiella pneumoniae; conditions: strain FADDI 010, 17 h
Description: as §1

[3] = tested on: Staphylococcus aureus (ATCC 25923); type: cell-based
[4] = tested on: Candida albicans (ATCC 753); type: cell-based
[5] = tested on: A. baumannii strain FADDI 005 (ATCC 19606 derivative); type: cell-based, Acinetobacter baumannii; conditions: 17 hr at 35° C.
Description: as §1
Pseudomonas aeruginosa (ATCC 27853) and S. aureus (ATCC 43300) were included as quality controls in experiments. P. aeruginosa strains FADDI 001 and FADDI 002 are mucoid; and P. aeruginosa strains FADDI 003 and FADDI 004 are non-mucoid. P. aeruginosa strain FADDI 003 also has a small colony morphology. The A. baumannii strain FADDI 005 is a colistin-resistant isolate obtained from Mueller-Hinton agar containing 10 mg/L colistin.

[6] = tested on: P. aeruginosa strain FADDI 002; type: cell-based, Pseudomonas aeruginosa; conditions: strain FADDI 002, 17 h
Description: as §1

[7] = tested on: Enterococcus faecium (ATCC 700221); type: cell-based; conditions: ATCC 700221, 17 h
Description: as §1

Escherichia coli DH5 α = type: cell-based
Description: as §1

[8] = tested on: Staphylococcus aureus (ATCC 700698); type: cell-based; conditions: ATCC 700698, 17 h
Description: as §1

[9] = tested on: A. baumannii strain FADDI 007; type: cell-based, Acinetobacter baumannii; conditions: strain FADDI 007, 17 h
Description: as §1

[10] = tested on: A. baumannii strain FADDI 006; type: cell-based, Acinetobacter baumannii; conditions: strain FADDI 006, 17 h
Description: as §1

[11] = tested on: tammar wallaby erythrocytes; type: cell-based
Description: The toxicity of the antimicrobial peptides was determined using a haemolytic assay. In particular, the hemolytic activity of the peptides was determined using tammar wallaby erythrocytes. Fresh erythrocytes were harvested from heparinized blood taken from a tammar wallaby. Erythrocytes were harvested by centrifugation for 3 min at 3000 g. Erythrocytes were then washed three times with PBS (pH 7.4) until the supernatant was essentially colourless. 20 μl two fold serial dilutions of the peptide were mixed with the same volume of erythrocytes in solution 2%) in PBS of each well of a 96-plate. 80 μl PBS was added to each well after the plate was incubated at 37° C. for one hour. Plates were then centrifuged at 3000 g for 5 min. 90 μl of the resulting supernatant was transferred to a flat-bottom microtiter plate and haemoglobin release was monitored by measuring the absorbance at 414 nm with an ELISA plate reader. […] Each sample was performed in triplicate. Percentage hemolysis was calculated by the following formula: [(OD414 peptide−OD414 buffer)/OD414 complete hemolysis−OD414 buffer)]×100%.

S. aureus 700699 = type: cell-based, Staphylococcus aureus; conditions: 700699, 17 h
Description: as §1

S. aureus (ATCC 43300) = type: cell-based, Staphylococcus aureus; conditions: ATCC 43300, 17 h
Description: as §1

[12] = tested on: S. aureus strain FADDI 011; type: cell-based, Staphylococcus aureus; conditions: strain FADDI 011, 17 h
Description: as §1

E. coli DH5α = conditions: for antimicrobial activity, cleared area in radial diffusion assay (FIG. 4): 5 μl of 250 μg/ml solutions
Description: Briefly, approximately 4×10^6 of mid-logarithmic-phase organisms were grown on plates in 11 ml of warm 0.8% agarose containing 0.03% (w/v) Tryticase soy broth (TSB) powder, with or without 100 mM NaCl, buffered with 10 mM sodium phosphate, pH 7.4. The test peptide was serially diluted in acidified water (0.01% acetic acid), and 5 μl of diluted peptide sample was loaded in a 2.5 diameter well in the agarose. A 10 ml overlay gel composed of 6% TSB, 0.8% agarose and 10 mM sodium phosphate buffer (pH 7.4) was poured into each well. Plates were then incubated overnight to allow the surviving organisms to form microcolonies. The clear zone were measured to the nearest 0.1 mm using a magnified transilluminator and expressed in units (1 mm=10 U) after subtracting the well diameter. The minimum inhibitory concentration (MIC) is defined by the χ intercept of a regression line through zone diameters obtained from a series of serially diluted peptide samples.

[13] = tested on: Streptococcus agalactiae (ATCC 12927); type: cell-based
[14] = tested on: Acinetobacter baumannii (ATCC 19606); type: cell-based
Description: as §1

[15] = tested on: Pseudomonas aeruginosa (ATCC 27853); type: cell-based
Description: as §1

[16] = tested on: Klebsiella pneumoniae (ATCC 13883); type: cell-based
Description: as §1

[17] = tested on: Streptococcus equi equi (ATCC 9527); type: cell-based; conditions: ATCC 9527
[18] = tested on: P. aeruginosa (ATCC 28753); type: cell-based, Pseudomonas aeruginosa
Bacillus subtilis = type: cell-based
[19] = tested on: Salmonella choleraesuis (ATCC 14028); type: cell-based
[20] = tested on: Streptococcus pyogenes (ATCC 19615); type: cell-based
[21] = MHB (less than 5 mg/L Mg2+ and 24 mg/L Ca2+), 17 hr at 35° C.

With “KRGFGKKLRKRLKKFRNSIKKRLKNFNVVIPIPLP-NH2 [SEQ ID NO: 2]” the MIC [1] was 4 µg/mL, the MIC [2] was 32 µg/mL and the “antimicrobial activity in words” value ([3]; Table 1) was “weaker antimicrobial activity”. The “antimicrobial activity in words” value ([4]; Table 1) was “Weaker antimicrobial activity”, the MIC ([5]; CAMHB (10.0 mg/L Mg2+ and 24 mg/L Ca2+)) was 8 µg/mL and the MIC ([5]; MHB (less than 5 mg/L Mg2+ and 24 mg/L Ca2+)) was 4 µg/mL. It also gave an MIC [6] of 4 µg/mL, an MIC [7] of 16 µg/mL and an MIC (Escherichia coli DH5 α; DH5 α) of 2 µg/mL. For the same molecule, the MIC [8] was >64 µg/mL, the MIC [9] was 8 µg/mL and the MIC [10] was >64 µg/mL. The “haemolysis at the MIC determined in Example 1” value [11] was “less than 5%”, the “haemolysis at the majority of concentrations tested (FIGS. 2a and 2b)” value [11] was “did not cause substantial levels of haemolysis” and the MIC (S. aureus 700699) was >64 µg/mL. For the same molecule, the MIC (S. aureus (ATCC 43300)) was >64 µg/mL, the MIC [12] was >64 µg/mL and the “radial clear zone compared to LL-37 (FIG. 3)” value (E. coli DH5α; 5 μl of 250 μg/ml solutions of each peptide, E. coli) was “larger radial clear zone”. The “antimicrobial activity in words” value ([13]; Table 1) was “moderate antimicrobial activity”.

For “D-Lys Arg Gly Phe Gly Lys Lys Leu Arg Lys Arg Leu Lys Lys Phe Arg Asn Ser Ile Lys Lys Arg Leu Lys Asn Phe Asn Val Val Ile Pro Ile Pro Leu D-Pro ([dK]RGFGKKLRKRLKKFRNSIKKRLKNFNVVIPIPL[dP]) [SEQ ID NO: 11]”, the “antimicrobial activity, cleared area in radial diffusion assay (FIG. 4)” value (“antimicrobial activity, cleared area” for short) (E. coli DH5α; E. coli) was “exhibits antimicrobial activity”.

`CC[C@@H](C)[C@@H](NC(=O)[C@@H](CO)NC(=O)[C@@H](CC(N)=O)NC(=O)[C@@H](CCCNC(=N)N)NC(=O)[C@@H](Cc1ccccc1)NC(=O)[C@@H](CCCCN)NC(=O)[C@@H](CCCCN)NC(=O)[C@@H](CC(C)C)NC(=O)[C@@H](CCCNC(=N)N)NC(=O)[C@@H](CCCCN)NC(=O)[C@@H](CCCNC(=N)N)NC(=O)[C@@H](CC(C)C)NC(=O)[C@@H](CCCCN)NC(=O)[C@@H](CCCCN)NC(=O)CNC(=O)[C@@H](Cc1ccccc1)NC(=O)CNC(=O)[C@@H](CCCNC(=N)N)NC(=O)[C@H](N)CCCCN)C(=O)N[C@H](CCCCN)C(=O)N[C@H](CCCCN)C(=O)N[C@H](CCCNC(=N)N)C(=O)N[C@H](CC(C)C)C(=O)N[C@H](CCCCN)C(=O)N[C@H](CC(N)=O)C(=O)N[C@H](Cc1ccccc1)C(=O)N[C@H](CC(N)=O)C(=O)N[C@@H](C(=O)N[C@@H](C(=O)N[C@@H](C(=O)N1CCC[C@@H]1C(=O)N[C@@H](C(=O)N1CCC[C@@H]1C(=O)N[C@H](CC(C)C)C(=O)N1CCC[C@@H]1C(N)=O)[C@H](C)CC)[C@H](C)CC)C(C)C)C(C)C` [SEQ ID NO: 9, D-Lys D-Arg D-Gly D-Phe D-Gly D-Lys D-Lys D-Leu D-Arg D-Lys D-Arg D-Leu D-Lys D-Lys D-Phe D-Arg D-Asn D-Ser D-Ile D-Lys D-Lys D-Arg D-Leu D-Lys D-Asn D-Phe D-Asn D-Val D-Val D-Ile D-Pro D-Ile D-Pro D-Leu D-Pro] (H-[dK][dR]G[dF]G[dK][dK][dL][dR][dK][dR][dL][dK][dK][dF][dR][dN][dS][dI][dK][dK][dR][dL][dK][dN][dF][dN][dV][dV][dI][dP][dI][dP][dL][dP]-NH2; N-terminus and C-terminus assumed) was tested, and the MIC (Escherichia coli DH5 α; DH5 α) was 4 µg/mL (≈ 0.948 µM), the MIC ([14]; ATCC 19606, 17 h) was 8 µg/mL (≈ 1.9 µM) and the MIC ([15]; ATCC 27853, 17 h) was 4 µg/mL (≈ 0.948 µM). For the same molecule, the MIC ([16]; ATCC 13883, 17 h) was 4 µg/mL (≈ 0.948 µM) and the MIC (S. aureus (ATCC 43300)) was >32 µg/mL.

“D-Pro Leu Pro Ile Pro Ile Val Val Asn Phe Asn Lys Leu Arg Lys Lys Ile Ser Asn Arg Phe Lys Lys Leu Arg Lys Arg Leu Lys Lys Gly Phe Gly Arg D-Lys ([dP]LPIPIVVNFNKLRKKISNRFKKLRKRLKKGFGR[dK]) [SEQ ID NO: 17]” was tested, and the “antimicrobial activity, cleared area” value (E. coli DH5α; E. coli) was “exhibits antimicrobial activity”.

Work on “RKKGSKRHKPGSYSVIALGKPGVKKSPYMEAL-NH2 [SEQ ID NO: 31]” yielded an MIC [17] of 8.66 ± 0.45 µg/mL, an MIC ([3]; ATCC 25923) of 8.5 ± 0.23 µg/mL and an MIC [18] of 57.8 µg/mL. The MIC ([4]; ATCC 753) was >250 µg/mL, the MIC (Bacillus subtilis) was 14.03 ± 0.25 µg/mL and the MIC [19] was >250 µg/mL. The MIC ([20]; ATCC 19615) was 3.43 ± 0.34 µg/mL, the “antimicrobial activity in words” value ([20]; Table 1) was “moderate protection” and the MIC (E. coli DH5α; DH5 α) was 1.16 ± 0.67 µg/mL. For the same molecule, the “antimicrobial activity in words” value (E. coli DH5α; Table 1) was “strong protection” and the MIC ([13]; ATCC 12927) was 5.44 ± 0.11 µg/mL.

For `CC[C@H](C)[C@H](NC(=O)[C@H](CCCCN)NC(=O)[C@H](CCC(=O)O)NC(=O)[C@H](CCCCN)NC(=O)[C@H](CO)NC(=O)[C@H](CCCCN)NC(=O)[C@H](CCCNC(=N)N)NC(=O)[C@H](Cc1ccccc1)NC(=O)[C@H](Cc1ccccc1)NC(=O)[C@H](CC(=O)O)NC(=O)CNC(=O)[C@H](CC(C)C)NC(=O)[C@@H](N)CC(C)C)C(=O)NCC(=O)N[C@@H](CCCCN)C(=O)N[C@@H](CCC(=O)O)C(=O)N[C@@H](Cc1ccccc1)C(=O)N[C@@H](CCCCN)C(=O)N[C@@H](CCCNC(=N)N)C(=O)N[C@H](C(=O)N[C@H](C(=O)N[C@@H](CCC(N)=O)C(=O)N[C@@H](CCCNC(=N)N)C(=O)N[C@H](C(=O)N[C@@H](CCCCN)C(=O)N[C@@H](CC(=O)O)C(=O)N[C@@H](Cc1ccccc1)C(=O)N[C@@H](CC(C)C)C(=O)N[C@@H](CCCNC(=N)N)C(=O)N[C@@H](CC(N)=O)C(=O)N[C@@H](CC(C)C)C(=O)N[C@H](C(=O)N1CCC[C@H]1C(=O)N[C@@H](CCCNC(=N)N)C(=O)N[C@H](C(=O)N[C@@H](CCC(=O)O)C(=O)N[C@@H](CO)C(=O)O)[C@@H](C)O)C(C)C)[C@@H](C)CC)C(C)C)[C@@H](C)CC` [LL-37, reference compound], the MIC (Escherichia coli DH5 α; microbroth dilution in MHB) was 32 µg/mL (≈ 7.12 µM), the MIC [14, 21] was 32 µg/mL (≈ 7.12 µM) and the MIC [15, 21] was >32 µg/mL. It also gave an MIC [16, 21] of 32 µg/mL (≈ 7.12 µM).

With “PLPIPIVVNFNKLRKKISNRFKKLRKRLKKGFGRK [SEQ ID NO: 13]” the “antimicrobial activity, cleared area” value (E. coli DH5α; E. coli) was “exhibits antimicrobial activity”.
